Data reported in US7235626B1, “Structured peptide scaffold for displaying turn libraries on phage” (Genentech, Inc., priority 1999, dated 2007).
Read-outs that look alike come from different tables or passages of the source. Positions of bridges follow the written chain, without caps; N, C: chain ends. No end group written: not given here.

How the values were obtained:
[1] = Thiol-disulfide exchange equilibrium (GSH/GSSG): intramolecular disulfide formation; ddG=-RT ln(Ceff,X/Ceff,Leu), gly-asn turn peptides 1; settings: the molecule shown is the open-chain precursor; 32-membered ring; water, ca. 0.15 M Tris, 1 mM EDTA, pH 8.10, 25 mM total glutathione; 0.375 mM; 20.0 °C; 1.5 h
[2] = Thiol-disulfide exchange equilibrium (GSH/GSSG redox buffer): intramolecular disulfide formation between two Cys of reduced peptide; Ceff=([pep_ox]/[pep_red])x([GSH]^2/[GSSG]), HPLC after acid quench; settings: the molecule shown is the open-chain precursor; 32-membered ring; water, ca. 0.15 M Tris, 1 mM EDTA, pH 8.10, 25 mM total glutathione; 0.375 mM; 20.0 °C; 1.5 h
[3] = cited from earlier work
[4] = Circular dichroism spectra of peptides; format: physicochemical; settings: 10° C.; 20 μM peptide in 20 mM potassium phosphate, pH 7.0
Description: Terminal serine and lysine residues were added to improve the solubility of some variants of the CD4 peptide, which are otherwise uncharged. A similar modification was made to bhpW as a control. Non-turn residues that differ between bhpW and the CD4 loop are underlined. Coelution of reduced and oxidized peptides prevented measurement of Ceff for the T2, N3 variant of the CD4 peptide. Circular dichroism spectra were acquired at 10° C. with an Aviv Instruments, Inc. Model 202 spectrophotometer; peptide concentrations were 20 μM in 20 mM potassium phosphate, pH 7.0.

CC(=O)N[C@@H](CS)C(=O)N[C@H](C(=O)N[C@@H](CC(=O)O)C(=O)N[C@@H](CCC(=O)O)C(=O)NCC(=O)N[C@@H](CC(N)=O)C(=O)N[C@@H](CCCCN)C(=O)N[C@@H](CC(C)C)C(=O)N[C@H](C(=O)N[C@@H](CS)C(N)=O)[C@@H](C)O)[C@@H](C)O [Ac-CTDEGNKLTC-NH2]
ring closure, dG (kcal/mol relative to X=Leu) [1]: 0.32

CC(=O)N[C@@H](CS)C(=O)N[C@H](C(=O)N[C@@H](Cc1ccccc1)C(=O)N[C@@H](CCC(=O)O)C(=O)NCC(=O)N[C@@H](CC(N)=O)C(=O)N[C@@H](CCCCN)C(=O)N[C@@H](CC(C)C)C(=O)N[C@H](C(=O)N[C@@H](CS)C(N)=O)[C@@H](C)O)[C@@H](C)O [Ac-CTFEGNKLTC-NH2]
ring closure, Ceff [2]: 88 mM

CC(=O)N[C@@H](CS)C(=O)N[C@H](C(=O)N[C@@H](CCCCN)C(=O)N[C@@H](CCC(=O)O)C(=O)NCC(=O)N[C@@H](CC(N)=O)C(=O)N[C@@H](CCCCN)C(=O)N[C@@H](CC(C)C)C(=O)N[C@H](C(=O)N[C@@H](CS)C(N)=O)[C@@H](C)O)[C@@H](C)O [Ac-CTKEGNKLTC-NH2]
ring closure, Ceff [2]: 52 mM

CC(=O)N[C@@H](CS)C(=O)N[C@H](C(=O)N[C@@H](CC(C)C)C(=O)N[C@@H](CCC(=O)O)C(=O)NCC(=O)N[C@@H](CC(N)=O)C(=O)N[C@@H](CCCCN)C(=O)N[C@@H](CC(C)C)C(=O)N[C@H](C(=O)N[C@@H](CS)C(N)=O)[C@@H](C)O)[C@@H](C)O [Ac-CTLEGNKLTC-NH2]
ring closure, dG (kcal/mol relative to X=Leu) [1]: 0
ring closure, Ceff [2]: 85 mM

CC(=O)N[C@@H](CS)C(=O)N[C@H](C(=O)N[C@@H](CC(N)=O)C(=O)N[C@@H](CCC(=O)O)C(=O)NCC(=O)N[C@@H](CC(N)=O)C(=O)N[C@@H](CCCCN)C(=O)N[C@@H](CC(C)C)C(=O)N[C@H](C(=O)N[C@@H](CS)C(N)=O)[C@@H](C)O)[C@@H](C)O [Ac-CTNEGNKLTC-NH2]
ring closure, Ceff [2]: 52 mM

CC(=O)N[C@@H](CS)C(=O)N[C@H](C(=O)N[C@H](C(=O)N[C@@H](CCC(=O)O)C(=O)NCC(=O)N[C@@H](CC(N)=O)C(=O)N[C@@H](CCCCN)C(=O)N[C@@H](CC(C)C)C(=O)N[C@H](C(=O)N[C@@H](CS)C(N)=O)[C@@H](C)O)[C@@H](C)O)[C@@H](C)O [Ac-CTTEGNKLTC-NH2]
ring closure, dG (kcal/mol relative to X=Leu) [1]: 0.3

CC(=O)N[C@@H](CS)C(=O)N[C@H](C(=O)N[C@H](C(=O)N[C@@H](CCC(=O)O)C(=O)NCC(=O)N[C@@H](CC(N)=O)C(=O)N[C@@H](CCCCN)C(=O)N[C@@H](CC(C)C)C(=O)N[C@H](C(=O)N[C@@H](CS)C(N)=O)[C@@H](C)O)C(C)C)[C@@H](C)O [Ac-CTVEGNKLTC-NH2]
ring closure, dG (kcal/mol relative to X=Leu) [1]: 0.09
ring closure, Ceff [2]: 73 mM

CC(=O)N[C@@H](CS)C(=O)N[C@H](C(=O)N[C@@H](Cc1c[nH]c2ccccc12)C(=O)N[C@@H](CCC(=O)O)C(=O)NCC(=O)N[C@@H](CC(N)=O)C(=O)N[C@@H](CCCCN)C(=O)N[C@@H](CC(C)C)C(=O)N[C@H](C(=O)N[C@@H](CS)C(N)=O)[C@@H](C)O)[C@@H](C)O [Ac-CTWEGNKLTC-NH2]
ring closure, dG (kcal/mol relative to X=Leu) [1]: -0.53
ring closure, Ceff [2]: 210 mM

CC(=O)N[C@@H](CS)C(=O)N[C@H](C(=O)N[C@@H](Cc1ccc(O)cc1)C(=O)N[C@@H](CCC(=O)O)C(=O)NCC(=O)N[C@@H](CC(N)=O)C(=O)N[C@@H](CCCCN)C(=O)N[C@@H](CC(C)C)C(=O)N[C@H](C(=O)N[C@@H](CS)C(N)=O)[C@@H](C)O)[C@@H](C)O [Ac-CTYEGNKLTC-NH2]
ring closure, dG (kcal/mol relative to X=Leu) [1]: -0.08
ring closure, Ceff [2]: 98 mM

CC(C)C[C@H](NC(=O)[C@H](Cc1ccccc1)NC(=O)[C@H](CO)NC(=O)CNC(=O)[C@H](CCC(N)=O)NC(=O)[C@H](CC(N)=O)NC(=O)CNC(=O)[C@H](CS)NC(=O)[C@@H](N)CO)C(=O)N[C@H](C(=O)N[C@@H](CS)C(=O)N[C@@H](CCCCN)C(N)=O)[C@@H](C)O [H-SCGNQGSFLTCK-NH2]
ring closure, Ceff [2]: 45 mM

CC(C)C[C@H](NC(=O)[C@H](Cc1ccccc1)NC(=O)[C@H](CO)NC(=O)CNC(=O)[C@H](CCC(N)=O)NC(=O)[C@H](Cc1c[nH]c2ccccc12)NC(=O)CNC(=O)[C@H](CS)NC(=O)[C@@H](N)CO)C(=O)N[C@H](C(=O)N[C@@H](CS)C(=O)N[C@@H](CCCCN)C(N)=O)[C@@H](C)O [H-SCGWQGSFLTCK-NH2]
ring closure, Ceff [2]: 48 mM

CC(C)C[C@H](NC(=O)[C@H](CCCCN)NC(=O)[C@H](CC(N)=O)NC(=O)CNC(=O)[C@H](CCC(=O)O)NC(=O)[C@H](Cc1c[nH]c2ccccc12)NC(=O)[C@@H](NC(=O)[C@H](CS)NC(=O)[C@@H](N)CO)[C@@H](C)O)C(=O)N[C@H](C(=O)N[C@@H](CS)C(=O)N[C@@H](CCCCN)C(N)=O)[C@@H](C)O [H-SCTWEGNKLTCK-NH2]
ring closure, Ceff [2]: 273 mM

CC(C)C[C@H](NC(=O)[C@H](Cc1ccccc1)NC(=O)[C@H](CO)NC(=O)CNC(=O)[C@H](CCC(N)=O)NC(=O)[C@H](Cc1c[nH]c2ccccc12)NC(=O)[C@@H](NC(=O)[C@H](CS)NC(=O)[C@@H](N)CO)[C@@H](C)O)C(=O)N[C@H](C(=O)N[C@@H](CS)C(=O)N[C@@H](CCCCN)C(N)=O)[C@@H](C)O [H-SCTWQGSFLTCK-NH2]
ring closure, Ceff [2]: 120 mM

GEWTYDDATKTFTVTE (turn peptide) [hairpin peptide derived from the B1 domain of protein G]
hairpin population ([3]; 273 K, from denaturation study): 80%
ΔH of folding ([3]; assuming ΔCp=0): -11.6 kcal/mol
ΔS of folding ([3]; assuming ΔCp=0): −39 cal/mol K
hairpin population ([3]; in water, NMR estimate): about 50%

IYSNPDGTWT (turn peptide) [variant of tendamistat-based model peptide]
hairpin population ([3]; in water, NMR estimate): 30%

IYSNSDGTWT (turn peptide)
hairpin population ([3]; in water, NMR estimate): 30%

KKYTVSINGKKITVSI (turn peptide)
ΔG of hairpin formation ([3]; 298 K): 0.08 kcal/mol
hairpin population ([3]; in water, 303 K): 50%

MQIGVKNPDGTITLEV (turn peptide)
hairpin population ([3]; in water, NMR estimate): ca. 80%

RGITVNGKTYGR (turn peptide) [designed β-hairpin peptide, type I′ turn flanked by three-residue strands]
hairpin population ([3]; in water, NMR estimate): about 30%

SCTNQGSFLTCK-NH2 (disulfide 2-11 (inferred)) [T2, N3 variant of the CD4 peptide]
[θ]215 [4]: −5,000 deg cm^2 dmol^−1

YITNSDGTWT (turn peptide) [model peptide forming a register-shifted hairpin]
hairpin population ([3]; in water, NMR estimate): 80%
